Experimental data from patent US20240368163A1, “COMPOUNDS AND METHODS FOR MODULATING SPLICING” (REMIX THERAPEUTICS INC., priority 2021, published 2024).

Tests used:
Format in all cases: cell-based, human
SMN2 = assay: Splicing RT-qPCR panel, SMN2 canonical junction (CJ) mRNA; settings: Homo sapiens, RT-qPCR panel, canonical junction mRNA; compound concentration having 50% response in CJ decrease; read-out: SMN2 IC50 (decrease in CJ mRNA levels)
In short: (§1)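 Cells: A673 (DMEM/10% FBS) or K562 (IMDM/10% FBS). Dose: 11-pt 3-fold, top 10 uM final, ≤0.25% DMSO, 24 h, 37 °C. Readout: RT-qPCR of CJ/AJ exon junctions, ΔΔCt vs housekeeper and DMSO, RQ to % response.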

HTT [1] = assay: HiBiT protein abundance assay, HTT; settings: Homo sapiens, K562, 24 h, Table 13A, modified K562 cells
In short: (§2)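 Luminescent readout from lytic HiBiT/LgBiT complementation reports endogenous tagged protein level in engineered K562 cells. Compounds dosed 24 h, top 10 μM final, 3-fold steps, 10 points. IC50 is the concentration giving 50% of untreated-control abundance, from 4-parameter logistic fit.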

MYB [2] = assay: Splicing RT-qPCR assay, MYB mRNA canonical junction (CJ) and alternative junction (AJ); settings: Homo sapiens; for AC50: increase in AJ mRNA
In short: as §1

Target C [3] = assay: HiBiT protein abundance assay, Target C; settings: Homo sapiens, K562, 24 h, Table 13A, modified K562 cells
In short: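 Knock-in HiBiT clones, 10000/well; 10-pt 3-fold titration, top 10 μM final; DMSO ≤0.25%; 24 h, 37 °C, 5% CO2. Lytic HiBiT luminescence readout. 4PL fit, IC50 = concentration giving 50% of untreated abundance.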

Target C [4] = assay: Splicing RT-qPCR panel, Target C canonical junction (CJ) mRNA; settings: Homo sapiens, RT-qPCR panel, canonical junction mRNA; compound concentration having 50% response in CJ decrease; read-out: Target C IC50 (decrease in CJ mRNA levels)
In short: as §1

HTT [5] = assay: Splicing RT-qPCR assay, HTT mRNA canonical junction (CJ) and alternative junction (AJ); settings: Homo sapiens; for AC50: increase in AJ mRNA
In short: as §1

MYB [6] = assay: HiBiT protein abundance assay, MYB; settings: Homo sapiens, K562, 24 h, Table 13A, modified K562 cells
In short: as §2

[7] = 24 h, decrease in CJ mRNA, A673 or K562 cells, 24 hours treatment, RT-qPCR, read-out: MYB CJ IC50
[8] = 24 h, A673 or K562 cells, 24 hours treatment, RT-qPCR
[9] = RT-qPCR panel, canonical junction mRNA, compound concentration having 50% response in CJ decrease, read-out: MYB IC50 (decrease in CJ mRNA levels)
[10] = 24 h, decrease in CJ mRNA, A673 or K562 cells, 24 hours treatment, RT-qPCR, read-out: HTT CJ IC50
[11] = RT-qPCR panel, canonical junction mRNA, compound concentration having 50% response in CJ decrease, read-out: HTT IC50 (decrease in CJ mRNA levels)

Row | Structure (SMILES) | IC50 (SMN2) [µM] | IC50 (HTT [1]) [µM] | IC50 (MYB [2]; [7]) [µM] | AC50 (MYB [2]; [8]) [µM] | IC50 (MYB [2]; [9]) [µM] | IC50 (Target C [3]) [µM] | IC50 (Target C [4]) [µM] | IC50 (HTT [5]; [10]) [µM] | AC50 (HTT [5]; [8]) [µM] | IC50 (HTT [5]; [11]) [µM] | IC50 (MYB [6]) [µM]
1 | c1nc2c(-c3cn[nH]c3)ccc(-c3ccc(N4CC5(CCNCC5)C4)nn3)c2s1 [Compound 197] | 1 to 10 | 1 to 10 | > 10 | > 10 | > 10 | 1 to 10 | > 10 | 1 to 10 | 1 to 10 | 1 to 10 | 1 to 10
2 | CN1C[C@@H]2CN(c3ccc(-c4ccc(-c5cn[nH]c5)c5ncsc45)nn3)C[C@@H]2C1 [Compound 198] | 0.1 to 1 | > 10 | > 10 | > 10 | > 10 | > 10 | > 10 | > 10 | > 10 | > 10 | 1 to 10
3 | c1nc2c(-c3cn[nH]c3)ccc(-c3ccc(S[C@@H]4C[C@H]5CC[C@@H](C4)N5)nn3)c2s1 [Compound 200] | > 10 | 1 to 10 | > 10 | > 10 | > 10 | 1 to 10 | > 10 | > 10 | > 10 | > 10 | 1 to 10
4 | Cc1ncc(-c2ccc(-c3ccc(N(C)C4CC(C)(C)NC(C)(C)C4)nc3)c3ncsc23)o1 [Compound 201] | 0.1 to 1 | 1 to 10 | 1 to 10 | 1 to 10 | 1 to 10 | > 10 | 1 to 10 | 1 to 10 | 1 to 10 | 1 to 10 | 1 to 10
5 | CN(c1ccc(-c2ccc(-c3cn[nH]c3)c3ncsc23)nn1)[C@H]1[C@@H]2CNC[C@@H]21 [Compound 205] | 1 to 10 | > 10 | > 10 | > 10 | > 10 | 1 to 10 | > 10 | > 10 | > 10 | > 10 | 1 to 10
6 | c1nc2c(-c3cn[nH]c3)ccc(-c3ccc(C4CCNCC4)nn3)c2s1 [Compound 206] | < 0.1 | 1 to 10 | 1 to 10 | 0.1 to 1 | 1 to 10 | > 10 | > 10 | 1 to 10 | > 10 | 1 to 10 | 1 to 10
7 | CN(c1ccc(-c2ccc(-c3cnn(C)c(=O)c3)c3scnc23)nn1)C1CC(C)(C)NC(C)(C)C1 [Compound 211] | 0.1 to 1 | 0.1 to 1 | 0.1 to 1 | 0.1 to 1 | 0.1 to 1 | 0.1 to 1 | 0.1 to 1 | 0.1 to 1 | 0.1 to 1 | 0.1 to 1 | 0.1 to 1
8 | c1nc2c(-c3cn[nH]c3)ccc(-c3ccc(NC4CCNCC4)nn3)c2s1 [Compound 214] | 0.1 to 1 | 1 to 10 | 1 to 10 | > 10 | 1 to 10 | > 10 | > 10 | > 10 | 1 to 10 | > 10 | 1 to 10
9 | c1n[nH]cc1-c1ccc(-c2ccc(N3CC4(CCCNC4)C3)nn2)c2[nH]ncc12 [Compound 218] | > 10 | > 10 | > 10 | > 10 | > 10 | > 10 | > 10 | > 10 | > 10 | > 10 | > 10
10 | c1nc2c(-c3cn[nH]c3)ccc(-c3ccc(O[C@@H]4C[C@H]5CCC[C@@H](C4)N5)nn3)c2[nH]1 [Compound 219] | < 0.1 | < 0.1 | 0.1 to 1 | 0.1 to 1 | 0.1 to 1 | 0.1 to 1 | 0.1 to 1 | 0.1 to 1 | 0.1 to 1 | 0.1 to 1 | 0.1 to 1
11 | CC1(C)CC(Oc2ccc(-c3ccc(-c4cn[nH]c4)c4cn[nH]c34)nn2)CCN1 (stereo not drawn) [Compound 220] | 0.1 to 1 | 1 to 10 | 1 to 10 | > 10 | 1 to 10 | > 10 | > 10 | 1 to 10 | > 10 | 1 to 10 | 1 to 10
12 | c1n[nH]cc1-c1ccc(-c2ccc(S[C@@H]3C[C@H]4CC[C@@H](C3)N4)nn2)c2[nH]ncc12 [Compound 221] | > 10 | 1 to 10 | > 10 | > 10 | > 10 | 1 to 10 | > 10 | > 10 | > 10 | > 10 | 1 to 10
13 | CN(c1ccc(-c2ccc(-c3cn[nH]c3)c3ncsc23)nn1)C1CCNCC1 [Compound 222] | 0.1 to 1 | 0.1 to 1 | 1 to 10 | 1 to 10 | 1 to 10 | 1 to 10 | 1 to 10 | 1 to 10 | 1 to 10 | 1 to 10 | 1 to 10
14 | [2H]C([2H])([2H])N(c1ccc(-c2ccc(-c3cn[nH]c3)c3ncsc23)nn1)C1CCNCC1 [Compound 223] | 0.1 to 1 | 1 to 10 | 1 to 10 | > 10 | 1 to 10 | 1 to 10 | 1 to 10 | 1 to 10 | 1 to 10 | 1 to 10 | 1 to 10
15 | CCN(c1ccc(-c2ccc(-c3cn[nH]c3)c3ncsc23)nn1)C1CCNCC1 [Compound 224] | 1 to 10 | 1 to 10 | 1 to 10 | > 10 | 1 to 10 | 1 to 10 | > 10 | > 10 | > 10 | > 10 | 0.1 to 1
